The results in this text go back to patent publication US20040106545A1, “Compounds and methods for modulating cell adhesion” (priority 1996, published 2004).

Positions of bridges follow the written chain, without caps; N, C: chain ends. Residues, ends and D or L forms follow the SMILES beside them.

For data set [1], the system named is chick embryonic chorioallantoic membranes. The experiment in a line: Chick chorioallantoic membrane angiogenesis assay. To be noted: for Percent Inhibition of Angiogenesis: 24 hours; for inhibition of angiogenesis (in words): 3, 17 and 33 μg/mesh. The data set is classed as in vivo. Here is the method:
Another cell adhesion assay evaluates the ability of a modulating agent to block angiogenesis (the growth of blood vessels from pre-existing blood vessels). This ability may be assayed using the chick chorioallantoic membrane assay described by Iruela-Arispe et al., Molecular Biology of the Cell 6:327-343, 1995. Briefly, a modulating agent may be embedded in a mesh composed of vitrogen at one or more concentrations (e.g., ranging from about 1 to 100 μg/mesh). The mesh(es) may then be applied to chick chorioallantoic membranes. After 24 hours, the effect of the peptide may be determined using computer assisted morphometric analysis. A modulating agent should inhibit angiogenesis by at least 25% at a concentration of 33 μg/mesh.
The chick chorioallantoic membrane assay was used to assess the effects of cyclic peptides on angiogenesis (Iruela-Arispe et al., Molecular Biology of the Cell 6:327-343, 1995). Cyclic peptides were embedded in a mesh composed of vitrogen at concentrations of 3, 17, and 33 μg/mesh. The meshes were then applied to 12-day-old chick embryonic chorioallantoic membranes. After 24 hours, the effects of the peptides on angiogenesis were assessed by computer assisted morphometric analysis.

Data set [2] has as its target T1, chick N-cadherin (Gallus gallus, UniProt P10288).
T1 construct: expressed in transfected cells; host or cells: 3T3 fibroblasts (monolayer); rat post-natal day 2-3 cerebellar neurons plated on top
T1 sequence (P10288 165-912): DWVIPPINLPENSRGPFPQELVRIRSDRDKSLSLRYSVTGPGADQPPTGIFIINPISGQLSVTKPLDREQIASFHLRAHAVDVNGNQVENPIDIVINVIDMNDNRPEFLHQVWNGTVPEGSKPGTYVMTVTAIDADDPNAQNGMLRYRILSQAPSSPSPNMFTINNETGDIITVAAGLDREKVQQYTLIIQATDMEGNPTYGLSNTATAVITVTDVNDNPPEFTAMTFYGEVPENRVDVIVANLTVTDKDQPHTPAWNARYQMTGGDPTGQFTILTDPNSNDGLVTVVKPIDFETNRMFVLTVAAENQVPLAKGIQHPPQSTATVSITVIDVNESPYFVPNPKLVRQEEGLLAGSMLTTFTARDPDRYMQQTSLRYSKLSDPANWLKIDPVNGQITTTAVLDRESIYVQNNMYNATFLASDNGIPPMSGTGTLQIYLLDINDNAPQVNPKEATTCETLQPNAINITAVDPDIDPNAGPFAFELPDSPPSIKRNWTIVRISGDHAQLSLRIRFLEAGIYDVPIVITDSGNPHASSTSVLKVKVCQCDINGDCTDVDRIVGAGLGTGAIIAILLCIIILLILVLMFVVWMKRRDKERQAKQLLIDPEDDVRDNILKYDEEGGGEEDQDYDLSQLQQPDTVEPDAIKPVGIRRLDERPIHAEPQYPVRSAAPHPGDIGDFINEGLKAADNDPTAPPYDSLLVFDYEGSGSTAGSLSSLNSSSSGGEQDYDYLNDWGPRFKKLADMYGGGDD
Description: Neurite outgrowth of rat cerebellar neurons on N-cadherin expressing 3T3 monolayers (Example 15). The format is cell-based. Conditions: for inhibitory activity on N-cadherin dependent neurite outgrowth, structure/activity statements: Tables 8 and 9; for effect on neurite outgrowth over N-cadherin expressing cells (in words): 500 μg/mL.

The nature of data set [3]: Cytotoxicity, MTT assay, HUVEC. The format is cell-based. To be noted: human, HUVEC (human umbilical vein endothelial cells), read-out: HUVEC Cytotox (IC50). Here is the method: (§1) N—Ac-CHAVC-NH2 (SEQ ID NO:10) and the control peptide N—Ac-CHGVC-NH2 (SEQ ID NO:11) were evaluated for possible cytotoxic effects on human microvascular endothelial (HMVEC; Clonetics), human umbilical vein endothelial (HUVEC; ATCC #CRL-1730), IAFp2 (human fibroblast cell line; Institute Armand-Frapier, Montreal, Quebec), WI-38 (human fibroblast cell line; ATCC #CCL-75), MDA-MB231 (human breast cancer cell line; ATCC #HTB-26), and PC-3 (human prostate cancer cell line; ATCC #CRL-1435) cells utilizing the MTT assay (Plumb et al., Cancer Res. 49:4435-4440, 1989). Neither of the peptides was cytotoxic at concentrations up to and including 100 μM. Similarly, neither of the peptides was capable of inhibiting the proliferation of the above cell lines at concentrations up to 100 μM, as judged by ^3H-thymidine incorporation assays.

Data set [4] is described as follows: Cytotoxicity, MTT assay, IAFp2. The format is cell-based. Conditions: human, read-out: IAFp2 Cytotox (IC50). The procedure: as §1
For orientation: Tetrazolium assays rely on reduction of a dye to a coloured formazan, in cell work by metabolically active cells.

A short description of data set [5]: Cytotoxicity, MTT assay, MDA-MB231. The data set is classed as cell-based, human. Conditions: human, MTT assay, read-out: MDA-MB231 Cytotox (IC50). The procedure, abridged:
(§2)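 Cytotoxicity of N-Ac-CHAVC-NH2 and the control peptide N-Ac-CHGVC-NH2 was assessed by MTT reduction in human endothelial, fibroblast and cancer cell lines at concentrations up to 100 μM. Proliferation was measured separately by ^3H-thymidine incorporation over the same concentration range.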

Data set [6] in a line: Cytotoxicity, MTT assay, PC-3. The format is cell-based, human. Conditions: human, MTT assay, read-out: PC-3 Cytotox (IC50). The procedure, abridged: as §2
Where [7] appears, read: 3 μg/mesh, absence (−) of 0.01 mM VEGF.
Where [8] appears, read: 3 μg/mesh, presence (+) of 0.01 mM VEGF.
[9] abbreviates: 17 μg/mesh, absence (−) of 0.01 mM VEGF.
The mark [10] stands for this setting: 17 μg/mesh, presence (+) of 0.01 mM VEGF.
The mark [11] stands for this setting: 33 μg/mesh, absence (−) of 0.01 mM VEGF.
Where [12] appears, read: 33 μg/mesh, presence (+) of 0.01 mM VEGF.

Take `CC[C@H](C)[C@@H]1NC(=O)[C@H](CC(=O)O)NC(=O)[C@H](C(C)C)NC(=O)[C@H](C)NC(=O)[C@H](Cc2c[nH]cn2)NC(=O)[C@H](C)NC(=O)[C@@H](NC(C)=O)CSSC[C@@H](C(N)=O)NC1=O` (Ac-CAHAVDIC-NH2; disulfide 1-8): the “Percent Inhibition of Angiogenesis” value in data set [1] (setting [7]) is −1%^; in data set [1] (setting [8]), 21%; in data set [1] (setting [9]) it was 15%; in data set [1] (setting [10]) it was 37%; in data set [1] (setting [11]) it was 33%; in data set [1] (setting [12]), 49%. The “inhibition of angiogenesis (in words)” value in data set [1] is listed as “inhibited angiogenesis significantly”. Moreover, the “inhibition of N-cadherin dependent neurite outgrowth (in words)” value in data set [2] (250 μg/mL) is recorded as “potent inhibitors of neurite outgrowth”. Also, the “activity on N-cadherin dependent neurite outgrowth (in words)” value in data set [2] (125 micrograms/mL or below) is “lost activity”. Further, the “inhibitory activity on N-cadherin dependent neurite outgrowth, structure/activity statements” value in data set [2] was “reduced, but did not eliminate, the activity”.
In the case of `CC(=O)N[C@H]1CSSC[C@@H](C(N)=O)NC(=O)[C@H](CC(=O)O)NC(=O)[C@H](C(C)C)NC(=O)[C@H](C)NC(=O)[C@H](Cc2c[nH]cn2)NC(=O)[C@H](C)NC1=O` [N—Ac—CAHAVDC—NH2, N-Ac-Cys-Ala-His-Ala-Val-Asp-Cys-NH2] (Ac-CAHAVDC-NH2; disulfide 1-7), the “Percent Inhibition of Angiogenesis” value was 21% in data set [1] (setting [7]); 59% in data set [1] (setting [8]); 27% in data set [1] (setting [9]); 72% in data set [1] (setting [10]); 31% in data set [1] (setting [11]); 79% in data set [1] (setting [12]). In data set [1], the “inhibition of angiogenesis (in words)” value is on record as “inhibited angiogenesis significantly”. Moreover, in data set [2], the “inhibitory activity on N-cadherin dependent neurite outgrowth, structure/activity statements” value was “completely eliminated inhibitory activity”.
What is called IC50 is the concentration that gives 50% inhibition. As for `CC(=O)N[C@H]1CSSC[C@@H](C(N)=O)NC(=O)[C@H](C(C)C)NC(=O)CNC(=O)[C@H](Cc2c[nH]cn2)NC1=O` [N—Ac—CHGVC—NH2, reference compound], the IC50 in data set [3], in data set [4] (IAFp2 cells (human fibroblast cell line)), in data set [5] (MDA-MB231 cells (human breast cancer cell line)) and in data set [6] (PC-3 cells (human prostate cancer cell line)) was above 100 µM each time. For the same molecule, the “effect on neurite outgrowth over N-cadherin expressing cells (in words)” value in data set [2] is reported as “had no effect on neurite outgrowth”.
In the case of `CC(=O)N[C@H]1CSSC[C@@H](C(N)=O)NC(=O)[C@H](C(C)C)NC(=O)[C@H](C)NC(=O)[C@H](Cc2c[nH]cn2)NC1=O` [N—Ac—CHAVC—NH2, N-Ac-Cys-His-Ala-Val-Cys-NH2], the “Percent Inhibition of Angiogenesis” value in data set [1] (setting [7]) was 12%; in data set [1] (setting [8]), 46%; in data set [1] (setting [9]), 22%; in data set [1] (setting [10]), 51%; in data set [1] (setting [11]) it was 28%; in data set [1] (setting [12]), 51%. Further, the IC50 in data set [3], in data set [4] (IAFp2 fibroblast cell line), in data set [5] (MDA-MB231 breast cancer cell line) and in data set [6] (PC-3 prostate cancer cell line) was above 100 µM each time. Moreover, in data set [2], the “effect on neurite outgrowth over N-cadherin expressing cells (in words)” value is recorded as “inhibition of neurite outgrowth”. Moreover, the “effect on the N-cadherin response” value in data set [2] (concentrations up to 62 μg/ml) is recorded as “no significant effect on the N-cadherin response”.
